Measurements published in US20260053834A1, “COVALENT MODIFIERS OF AKT1 AND USES THEREOF” (Terremoto Biosciences, Inc., priority 2023, published 2026).

How the values were obtained:
[1] = test system: LAPC4 prostate cancer cells, which express the AKT1 E17K allele; experiment: Antiproliferative effects in LAPC4 cells (CellTiter Glo, 72 h); type: cell-based; settings: Homo sapiens, LAPC4, 72 h, read-out: LAPC4 proliferation IC50: GeoMean IC50
Outline: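 IC50 values come from Hill-equation fitting of luminescence (cellular ATP) after 72 h compound exposure. Treated wells held 1,000 cells each, with compound delivered as DMSO dilutions. Culture medium was IMDM plus 12% FBS.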

AKT1 E17K = target: T1, AKT1 E17K (Homo sapiens, UniProt P31749, E17K); experiment: Live cell target engagement by NanoBRET competitive probe displacement, AKT1 E17K; type: binding; settings: transfected HEK293 cells, 2 h at 37° C., read-out: AKT1 E17K IC50: GeoMean IC50
T1 construct: expressed in transfected cells; host or cells: HEK293

AKT1 WT = target: T2, AKT1 WT (Homo sapiens, UniProt P31749); experiment: Live cell target engagement by NanoBRET competitive probe displacement, AKT1 WT; type: binding; settings: transfected HEK293 cells, 2 h at 37° C., read-out: AKT1 WT IC50: GeoMean IC50
T2 construct: expressed in transfected cells; host or cells: HEK293

AKT2 = target: T3, AKT2 (Homo sapiens, UniProt P31751); experiment: Live cell target engagement by NanoBRET competitive probe displacement, AKT2; type: binding; settings: transfected HEK293 cells, 2 h at 37° C., read-out: AKT2 IC50: GeoMean IC50
T3 construct: expressed in transfected cells; host or cells: HEK293
T3 sequence (P31751 whole entry): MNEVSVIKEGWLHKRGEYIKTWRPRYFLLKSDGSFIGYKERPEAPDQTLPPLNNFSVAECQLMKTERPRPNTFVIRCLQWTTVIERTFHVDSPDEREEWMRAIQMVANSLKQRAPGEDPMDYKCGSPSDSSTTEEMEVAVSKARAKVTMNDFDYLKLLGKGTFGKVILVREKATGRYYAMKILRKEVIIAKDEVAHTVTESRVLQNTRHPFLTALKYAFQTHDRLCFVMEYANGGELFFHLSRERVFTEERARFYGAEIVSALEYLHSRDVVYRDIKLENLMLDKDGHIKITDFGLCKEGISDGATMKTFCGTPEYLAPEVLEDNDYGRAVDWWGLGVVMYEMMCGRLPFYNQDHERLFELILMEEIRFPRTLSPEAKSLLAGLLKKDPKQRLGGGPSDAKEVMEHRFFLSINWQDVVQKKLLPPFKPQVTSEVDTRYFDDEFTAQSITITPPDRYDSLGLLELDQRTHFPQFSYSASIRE

T1 sequence (P31749 whole entry E17K): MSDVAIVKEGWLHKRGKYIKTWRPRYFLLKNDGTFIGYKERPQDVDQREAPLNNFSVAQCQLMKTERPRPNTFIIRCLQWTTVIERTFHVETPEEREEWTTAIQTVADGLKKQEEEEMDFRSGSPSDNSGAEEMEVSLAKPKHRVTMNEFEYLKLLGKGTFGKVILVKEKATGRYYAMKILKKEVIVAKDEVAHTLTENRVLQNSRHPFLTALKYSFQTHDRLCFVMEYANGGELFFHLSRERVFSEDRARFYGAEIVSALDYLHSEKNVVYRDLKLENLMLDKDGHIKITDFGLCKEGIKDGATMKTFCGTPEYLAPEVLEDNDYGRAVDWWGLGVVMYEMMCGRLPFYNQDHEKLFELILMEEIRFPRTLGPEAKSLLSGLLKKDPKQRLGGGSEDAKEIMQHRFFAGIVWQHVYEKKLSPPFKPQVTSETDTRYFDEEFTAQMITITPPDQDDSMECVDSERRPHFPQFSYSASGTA
T2 sequence (P31749 whole entry): as the sequence (P31749 whole entry E17K) above, with K17E counted along it

IC50 [1] [nM]	IC50 (AKT1 E17K) [nM]	IC50 (AKT1 WT) [nM]	IC50 (AKT2) [nM]	Compound
10 to 100	< 10	10 to 100	100 to 2000	Nc1ncccc1-c1nc2c(C(F)F)cc(-n3cccn3)nc2n1-c1ccc2c(c1)CC[C@@H]2NC(=O)c1ccc(O)c(C=O)c1 [Example 245, N-[(1S)-5-[2-(2-aminopyridin-3-yl)-7-(difluoromethyl)-5-(pyrazol-1-yl)imidazo[4,5-b]pyridin-3-yl]-2,3-dihydro-1H-inden-1-yl]-3-formyl-4-hydroxybenzamide]
10 to 100	10 to 100	10 to 100	100 to 2000	COc1cnc(-c2ccc3nc(-c4cccnc4N)n(-c4ccc5c(c4)CC[C@@H]5NC(=O)c4ccc(O)c(C=O)c4)c3n2)cn1 [Example 71, (S)—N-(5-(2-(2-aminopyridin-3-yl)-5-(5-methoxypyrazin-2-yl)-3H-imidazo[4,5-b]pyridin-3-yl)-2,3-dihydro-1H-inden-1-yl)-3-formyl-4-hydroxybenzamide]
